These results are taken from patent publication US9260382B2, “Methods of reducing virulence in bacteria” (priority 2010, dated 2016).

The test system of this assay is hrpA promoter (T3SS). Description: hrpA promoter-probe phrpA in Erwinia amylovora 273, flow cytometry. The note with it: Ea273 (phrpA), HIM + 100 μM compound. Type of assay: cell-based. On the procedure: Wild-type Erwinia amylovora 273 was used in this study. The promoter-probe plasmid phrpA was constructed as follows. The hrpA promoter region of Erwinia amylovora 273 was amplified and cloned into pPROBE-NT to produce PhrpA. Plasmid PhrpA was electroporated into Erwinia amylovora 273. Expression of hrpA was analyzed using a FACS Calibur flow cytometer (BD Biosciences, CA). Wild-type Erwinia amylovora 273 containing phrpA was cultured in a hrp-inducing medium (HIM) containing dimethyl sulfoxide (DMSO; solvent of chemical compounds), or HIM supplemented with 100 μM of each compound, and promoter activity was assessed at 6 h and 9 h by measuring GFP intensity using flow cytometry (Table 19).
In general terms: A flow cytometer gives signals particle by particle.

For the compound `O=C(/C=C/c1ccc(CO)cc1)NO` [Compound 147, trans-4-Hydroxymethylcinnamohydroxamic acid], the “Avg MFI ± SD, hrpA expression” value runs as follows: (6 h) 688.6 ± 39.2; (9 h) 746.8 ± 96.3.
For `O=C(O)/C=C/c1ccc(O)c(O)c1` [Compound 003, 3,4-Dihydroxycinnamic acid], in that order: 783.4 ± 80.2 and 787.3 ± 25.2.
As for `COc1ccc(/C=C/C(=O)O)cc1` [Compound 017, trans-4-Methoxycinnamic acid], the “Avg MFI ± SD, hrpA expression” value was 132.5 ± 5.5 (6 h) and 76.4 ± 2.7 (9 h).
As for `O=C(O)CCc1ccccc1` [Compound 008, Hydrocinnamic acid], the “Avg MFI ± SD, hrpA expression” value reads like this: (6 h) 395.9 ± 16.0; (9 h) 342.0 ± 11.7.
In the same order, the values of `CN(C(=O)c1ccc(/C=C/C(=O)O)cc1)c1ccccc1` [Compound 167, trans-4-(Carbo-N-methyl-phenylamide)cinnamic acid] are 729.7 ± 67.5 and 707.3 ± 55.9.
For `O=C(O)/C=C/c1ccc(Cl)cc1` [Compound 023, trans-4-Chlorocinnamic acid], in that order: 171.8 ± 7.7 and 125.8 ± 3.9.
Regarding `O=C(/C=C/c1ccc(F)cc1)NO` [Compound 141, trans-4-Fluorocinnamohydroxamic acid], the “Avg MFI ± SD, hrpA expression” value (6 h) is 167.6 ± 4.7 and the “Avg MFI ± SD, hrpA expression” value (9 h) was 119.0 ± 7.1.
As to `Cc1ccc(/C=C/C(=O)O)cc1` [Compound 020, trans-4-Methylcinnamic acid], the “Avg MFI ± SD, hrpA expression” value is, setting by setting: (6 h) 208.5 ± 2.7; (9 h) 145.4 ± 3.7.
Consider `Cc1cccc(/C=C/C(=O)O)c1` [Compound 019, trans-3-Methylcinnamic acid], for which the “Avg MFI ± SD, hrpA expression” value reads like this: (6 h) 311.5 ± 18.6; (9 h) 251.6 ± 13.3.
For `COc1ccccc1/C=C/C(=O)NO` [Compound 159, trans-2-Methoxycinnamohydroxamic acid], in that order: 256.3 ± 10.8 and 337.3 ± 15.2.
In the same order, the values of `O=C(/C=C/c1ccccc1Br)NO` [Compound 152, trans-2-Bromocinnamohydroxamic acid] are 15.7 ± 2.3 and 11.1 ± 1.2.
For `O=C(/C=C/c1ccc(Br)cc1)NO` [Compound 128, trans-4-Bromocinnamohydroxamic acid], in that order: 17.6 ± 2.8 and 5.7 ± 2.2.
Take `NNC(=O)/C=C/c1ccc(O)cc1` [Compound 133, trans-3-(4-Hydroxyphenyl)acrylohydrazid]: the “Avg MFI ± SD, hrpA expression” value was 1716.5 ± 33.1 (6 h) and 2780.9 ± 58.5 (9 h).
For `O=C(/C=C/c1cccc(Br)c1)NO` [Compound 151, trans-3-Bromocinnamohydroxamic acid], in that order: 6.3 ± 1.2 and 3.9 ± 1.2.
For `NC(=O)/C=C/c1ccccc1` [Compound 031, trans-Cinnamamide], in that order: 98.0 ± 18.4 and 88.1 ± 4.6.
For `O=C(O)/C=C/c1cccnc1` [Compound 013, trans-3-(3-Pyridyl)acrylic acid], in that order: 468.3 ± 7.7 and 245.7 ± 3.1.
`O=C(/C=C/c1cccc(F)c1)NO` [Compound 153, trans-3-Fluorocinnamohydroxamic acid]: the “Avg MFI ± SD, hrpA expression” value runs as follows: (6 h) 177.1 ± 11.9; (9 h) 110.6 ± 3.2.
In the same order, the values of `O=C(O)/C=C/c1ccccc1C(=O)O` [Compound 024, trans-2-Carboxycinnamic acid] are 361.1 ± 76.1 and 332.2 ± 19.6.
In the case of `Cc1ccccc1/C=C/C(=O)NO` [Compound 160, trans-2-Methylcinnamohydroxamic acid], the “Avg MFI ± SD, hrpA expression” value reads like this: (6 h) 122.7 ± 1.9; (9 h) 95.7 ± 3.7.
Consider `O=C(/C=C/c1ccco1)NO` [Compound 163, trans-3-(2-Furyl)acrylhydroxamic acid], for which the “Avg MFI ± SD, hrpA expression” value by setting is: (6 h) 231.5 ± 7.0; (9 h) 196.5 ± 14.9.
In the same order, the values of `O=C(O)/C=C/c1ccc2ccccc2c1` [Compound 035, 3-(2-naphthyl) acrylic acid] are 178.9 ± 9.7 and 89.0 ± 6.2.
For `O=C(O)/C=C/c1ccc(O)cc1O` [Compound 002, 2,4-Dihydroxycinnamic acid], in that order: 1365.3 ± 104.9 and 1479.8 ± 72.9.
For `O=C(O)/C=C/c1ccc(S)cc1` [Compound 026, trans-4-Mercaptocinnamic acid], in that order: 159.7 ± 22.0 and 44.7 ± 2.7.
With `O=C(O)C#Cc1ccccc1` [Compound 136, Phenylpropiolic acid], the “Avg MFI ± SD, hrpA expression” value turned out to be 261.7 ± 1.0 (6 h) and 307.0 ± 9.3 (9 h).
For `O=C(O)/C=C/c1ccc(C(=O)Cc2ccccc2)cc1` [Compound 164, trans-4-(Benzylcarbonyl)cinnamic acid], in that order: 155.7 ± 22.2 and 116.4 ± 6.7.
For `O=C(/C=C/c1cccc(O)c1)NO` [Compound 130, trans-3-Hydroxycinnamohydroxamic acid], in that order: 431.4 ± 4.1 and 491.0 ± 10.2.
For `O=C(O)/C=C/c1ccc(C(=O)O)cc1` [Compound 025, trans-4-Carboxycinnamic acid], in that order: 421.0 ± 10.6 and 496.7 ± 98.9.
For `COc1cccc(/C=C/C(=O)NO)c1` [Compound 158, trans-3-Methoxycinnamohydroxamic acid], the “Avg MFI ± SD, hrpA expression” value is, setting by setting: (6 h) 216.2 ± 12.5; (9 h) 250.6 ± 13.9.
In the same order, the values of `O=C(/C=C/c1ccc(-c2ccccc2)cc1)NO` [Compound 140, trans-4-Phenylcinnamohydroxamic acid] are 101.7 ± 17.1 and 82.8 ± 4.3.
In the same order, the values of `O=C(/C=C/c1cccs1)NO` [Compound 161, trans-3-(2-Thienyl)acrylhydroxamic acid] are 132.4 ± 13.2 and 145.0 ± 11.7.
In the same order, the values of `O=C(NO)c1ccccc1O` [Compound 135, Salicylhydroxamic acid] are 124.7 ± 7.7 and 147.8 ± 4.3.
As to `O=C(/C=C/c1ccc(O)cc1)NCCO` [Compound 138, N-(2-Hydroxyethyl)-4-hydroxycinnamamide], the “Avg MFI ± SD, hrpA expression” value is given as 1474.5 ± 30.4 (6 h) and 1907.0 ± 39.8 (9 h).
Take `O=C(/C=C/c1ccc([N+](=O)[O-])cc1)NO` [Compound 155, trans-4-Nitrocinnamohydroxamic acid]: the “Avg MFI ± SD, hrpA expression” value is listed as 108.4 ± 8.5 (6 h) and 132.5 ± 2.6 (9 h).
